Series [1] is described as follows: Human microsome stability assay. The settings on record: human liver microsomes, 1 μM test compound, 0.5 mg/mL microsomal protein, 37° C., pH 7.4, 0-30 minutes. The class given is in vitro ADME. As for the experimental part:
The human microsomal stability assay is used for early assessment of metabolic stability of a test compound in human liver microsomes.
Human liver microsomes (Cat. NO.: 452117, Corning, USA; Cat. NO.: H2610, Xenotech, USA) were preincubated with test compound for 10 minutes at 37° C. in 100 mM potassium phosphate buffer, pH 7.4. The reactions were initiated by adding NADPH regenerating system. The final incubation mixtures contained 1 μM test compound, 0.5 mg/mL liver microsomal protein, 1 mM MgCl2, 1 mM NADP, 1 unit/mL isocitric dehydrogenase and 6 mM isocitric acid in 100 mM potassium phosphate buffer, pH 7.4. After incubation times of 0, 3, 6, 9, 15 and 30 minutes at 37° C., 300 μL of cold ACN (including internal standard) was added to 100 μL incubation mixture to terminate the reaction. Following precipitation and centrifugation, the amount of compound remaining in the samples was determined by LC-MS/MS. Controls of no NADPH regenerating system at zero and 30 minutes were also prepared and analyzed.
A general note: Liver microsomes are a subcellular fraction often used to study metabolism.

Series [2] deals with HBeAg (surrogate marker for cccDNA) in HepDES19 cells. As to the kind of experiment: Engineered HepDES19 primary screen assay (HBeAg ELISA). The class given is cell-based, HBV. The source says:
The assay was employed to screen for novel cccDNA inhibitors. HepDES19 is a cccDNA-producing cell line. In this cell line, HBeAg in the cell culture supernatant as surrogate marker, as HBeAg production depends on cccDNA level and activity. HepDES19 is an engineered cell line which contains a 1.1 unit length HBV genome, and pgRNA transcription from the transgene is controlled by Tetracycline (Tet). In the absence of Tet, pgRNA transcription will be induced, but HBV e antigen (HBeAg) could not be produced from this pgRNA due to very short leader sequence before the HBeAg start codon and the start codon is disrupted. Only after cccDNA is formed, the missing leader sequence and start codon mutation would be restored from the 3′-terminal redundancy of pgRNA, and then HBeAg could be synthesized. Therefore, HBeAg could be used as a surrogate marker for cccDNA (Zhou, T. et al., Antiviral Res. (2006), 72(2), 116-124; Guo, H. et al., J. Virol. (2007), 81(22), 12472-12484).
HepDES19 cells were seeded at 2×10^6 cells per T150 flask and cultured with the culture medium (Dulbecco's Modified Eagle Medium: Nutrient Mixture F-12 [DMEM-F12, Gibco Cat. 11320-82], 10% Fetal Bovine Serum [FBS, Clontech Cat. 631101], 0.1 mM Non-Essential Amino Acids Solution [NEAA, Gibco Cat. 11140-050], 50 μg/mL Penicillin-Streptomycin [PS, Invitrogen Cat. 15140-163], 500 μg/mL Geneticin [G418, Invitrogen Cat. 10131-027]) containing 3 μg/mL Tet (Sigma, Cat. 87128) for 5 days. Cells were then seeded at 4×10^6 cells per T150 in the same culture medium as described above in the absence of Tet for 8 days. Cells were then harvested and frozen at density of 2×10^6 cells per mL. For compound testing, the frozen cells were thawed and seeded into 96-well plates at a density of 6×10^4 cells per well. At 24 hours after seeding, half log serial dilutions of compounds made with Dimethyl sulfoxide (DMSO, Sigma, Cat. D2650) were further diluted with the same culture medium as described above before they were added to the cells to reach desired final compound concentrations and 1% DMSO concentration. Plates were then incubated at 37° C. for another 5 days before measurement of HBeAg level and cell viability. […] HBeAg level were measured with enzyme-linked immunosorbent assay (ELISA) kit (Shanghai Kehua Diagnostic Medical Products Co., Ltd). Cell viability was assessed using Cell Counting Kit-8 (DonJindo, Cat. CK04-20). IC50 values were derived from the dose-response curve using 4 parameter logistic curve fit method.
The compounds of the present invention were tested for their capacity to inhibit extracellular HBeAg level as described herein.

Where [3] appears, read: Hepatitis B virus, HepDES19, 120 h, read-out: IC50 (HBeAg level, HepDES19 primary screen assay), HepDES19 cells, 5 days compound incubation, HBeAg ELISA.

Read-outs that look alike come from different tables or passages of the source.

The IC50 is the concentration that inhibits the measured activity by half. Regarding `O=C(O)[C@@H]1CC[C@@H](Oc2cc(Br)ccc2-c2cc(=O)c3cccc(Cl)c3o2)C1` (relative stereo) [Example B028-B, Trans-3-[5-bromo-2-(8-chloro-4-oxo-chromen-2-yl)phenoxy]cyclopentanecarboxylic acid], the “Clearance of Human microsome” value in series [1] worked out at 9.98 mL/min/kg. Besides, in series [2] (setting [3]), the IC50 turned out to be 213 nM.
For the molecule `O=C(O)C1CCCN1C(=O)COc1cc(C(F)(F)F)ccc1-c1cc(=O)c2cccc(Cl)c2o1` (stereo in doubt) [Example A082, (2S)-1-[2-[2-(8-chloro-4-oxo-chromen-2-yl)-5-(trifluoromethyl)phenoxy]acetyl]pyrrolidine-2-carboxylic acid], the “Clearance of Human microsome” value in series [1] came out at 6.15 mL/min/kg. In addition, in series [2] (read-out: IC50 (HBeAg level, HepDES19 primary screen assay), HepDES19 cells, 5 days compound incubation, HBeAg ELISA), the IC50 came to 1190 nM.
Consider `O=C(O)C1CC(OCCOc2ccccc2-c2cc(=O)c3cccc(Br)c3o2)C1` (stereo in doubt) [Example C046-A, Cis-3-[2-[2-(8-bromo-4-oxo-chromen-2-yl)phenoxy]ethoxy]cyclobutanecarboxylic acid], for which the “Clearance of Human microsome” value in series [1] is 6.15 mL/min/kg. The IC50 in series [2] (setting [3]) was determined as 192 nM.
On the same counts, the results for `O=C(O)CCOc1cc(C(F)(F)F)ccc1-c1cc(=O)c2cc(F)cc(Cl)c2o1` [Example A003, 3-[2-(8-chloro-6-fluoro-4-oxo-chromen-2-yl)-5-(trifluoromethyl)phenoxy]propanoic acid] are 6.15 mL/min/kg and 362 nM.
On to `COc1cc(-c2cc(=O)c3cccc(Cl)c3o2)c(OCCC(=O)O)cc1C` [Example A015, 3-[2-(8-chloro-4-oxo-chromen-2-yl)-4-methoxy-5-methyl-phenoxy]propanoic acid], for which the “Clearance of Human microsome” value in series [1] is 6.15 mL/min/kg. Further, in series [2] (setting [3]), the IC50 came out at 11100 nM.
In the same order, the values of `Cc1cc(Br)c(OCCC(=O)O)c(-c2cc(=O)c3cccc(Cl)c3o2)c1` [Example A018, 3-[2-bromo-6-(8-chloro-4-oxo-chromen-2-yl)-4-methyl-phenoxy]propanoic acid] are 6.15 mL/min/kg and 3320 nM.
Consider `Cc1cc(OCCC(=O)O)c(-c2cc(=O)c3cccc(Cl)c3o2)cc1OC(F)(F)F` [Example A019, 3-[2-(8-chloro-4-oxo-chromen-2-yl)-5-methyl-4-(trifluoromethoxy)phenoxy]propanoic acid], for which the “Clearance of Human microsome” value in series [1] is reported as 6.15 mL/min/kg. For the same molecule, the IC50 in series [2] (setting [3]) was 2960 nM.
In the same order, the values of `Cc1cc(F)c(-c2cc(=O)c3cccc(Cl)c3o2)c(OCCC(=O)O)c1` [Example A021, 3-[2-(8-chloro-4-oxo-chromen-2-yl)-3-fluoro-5-methyl-phenoxy]propanoic acid] are 6.15 mL/min/kg and 4040 nM.
On the same counts, the results for `O=C(O)CCOc1cc(C(F)(F)F)ccc1-c1cc(=O)c2ccc(F)c(Cl)c2o1` [Example A031, 3-[2-(8-chloro-7-fluoro-4-oxo-chromen-2-yl)-5-(trifluoromethyl)phenoxy]propanoic acid] are 6.15 mL/min/kg and 377 nM.
As for `Cc1cc(-c2cc(=O)c3cccc(Cl)c3o2)c(OCC(=O)O)cc1Br` [Example A073, 2-[5-bromo-2-(8-chloro-4-oxo-chromen-2-yl)-4-methyl-phenoxy]acetic acid], the “Clearance of Human microsome” value in series [1] was found to be 6.15 mL/min/kg.
As to `O=c1cc(-c2ccc(C3CC3)cc2OCCO[C@H]2C[C@H](C(=O)O)C2)oc2c(Cl)cccc12` [Example C069-B, Trans-3-[2-[2-(8-chloro-4-oxo-chromen-2-yl)-5-cyclopropyl-phenoxy]ethoxy]cyclobutanecarboxylic acid], the IC50 in series [2] (setting [3]) stood at 1290 nM.
On the same count and under the same terms, to `O=c1cc(-c2cc(OC(F)(F)F)c(O)cc2OCCO[C@H]2C[C@@H](C(=O)O)C2)oc2c(Cl)cccc12` [Example C090, Cis-3-[2-[2-(8-chloro-4-oxo-chromen-2-yl)-5-hydroxy-4-(trifluoromethoxy)phenoxy]ethoxy]cyclobutanecarboxylic acid] belongs 6570 nM; to `O=C1Cc2cc(OCCO[C@H]3C[C@@H](C(=O)O)C3)c(-c3cc(=O)c4cccc(Cl)c4o3)cc2N1` [Example C091, Cis-3-[2-[6-(8-chloro-4-oxo-chromen-2-yl)-2-oxo-indolin-5-yl]oxyethoxy]cyclobutanecarboxylic acid], 418 nM.
The same measure, in the same setting: in the case of `CCOc1ccc(-c2cc(=O)c3ccc(C(F)(F)F)c(Cl)c3o2)c(OCCOC2CC(C(=O)O)C2)c1` (centres unmarked) [Example C097, 3-[2-[2-[8-chloro-4-oxo-7-(trifluoromethyl)chromen-2-yl]-5-ethoxy-phenoxy]ethoxy]cyclobutanecarboxylic acid] it was 1310 nM; in that of `O=C(O)C1CCC(OCCOc2cc(Br)ccc2-c2cc(=O)c3cccc(Cl)c3o2)C1` (centres unmarked) [Example C106, 3-[2-[5-bromo-2-(8-chloro-4-oxo-chromen-2-yl)phenoxy]ethoxy]cyclopentanecarboxylic acid], 2100 nM.
The same measure, in the same setting: to `O=C(O)c1ccc(OCCOc2cc(Br)ccc2-c2cc(=O)c3cccc(Cl)c3o2)cc1` [Example C107, 4-[2-[5-bromo-2-(8-chloro-4-oxo-chromen-2-yl)phenoxy]ethoxy]benzoic acid] belongs 991 nM; to `O=C(O)c1cccc(OCCOc2cc(Br)ccc2-c2cc(=O)c3cccc(Cl)c3o2)c1` [Example C108, 3-[2-[5-bromo-2-(8-chloro-4-oxo-chromen-2-yl)phenoxy]ethoxy]benzoic acid], 1250 nM.
For the molecule `CC(C)(OCCCOc1cc(C(F)(F)F)ccc1-c1cc(=O)c2cccc(Cl)c2o1)C(=O)O` [Example C109, 2-[3-[2-(8-chloro-4-oxo-chromen-2-yl)-5-(trifluoromethyl)phenoxy]propoxy]-2-methyl-propanoic acid], the IC50 in series [2] (setting [3]) was determined as 995 nM.
Same read-out and setting: to `CS(=O)(=O)NC(=O)[C@H]1C[C@H](OCCOc2cc(Br)ccc2-c2cc(=O)c3cccc(Cl)c3o2)C1` [Example C123, Trans-3-[2-[5-bromo-2-(8-chloro-4-oxo-chromen-2-yl)phenoxy]ethoxy]-N-methylsulfonyl-cyclobutanecarboxamide] belongs 6530 nM; to `CS(=O)(=O)NC(=O)C1CCC(OCCCOc2cc(C(F)(F)F)ccc2-c2cc(=O)c3cccc(Cl)c3o2)C1` (centres unmarked) [Example C124, 3-[3-[2-(8-chloro-4-oxo-chromen-2-yl)-5-(trifluoromethyl)phenoxy]propoxy]-N-methylsulfonyl-cyclopentanecarboxamide], 2840 nM; to `O=C(COCCOc1cc(Br)ccc1-c1cc(=O)c2cccc(Cl)c2o1)N1CCC(O)C1` (centres unmarked) [Example C126, 2-[4-bromo-2-[2-[2-(3-hydroxypyrrolidin-1-yl)-2-oxo-ethoxy]ethoxy]phenyl]-8-chloro-chromen-4-one], 4400 nM.
The same measure, in the same setting: to `O=c1cc(-c2ccccc2O)oc2cc(O)ccc12` [Example F-1, 7-hydroxy-2-(2-hydroxyphenyl)chromen-4-one, reference compound] belongs over 50000 nM; to `COc1ccc2oc(-c3ccccc3OC)cc(=O)c2c1` [Example F-2, 6-methoxy-2-(2-methoxyphenyl)chromen-4-one, reference compound], over 50000 nM.

These data come from patent publication US11708344B2, “Flavone derivatives for the treatment and prophylaxis of hepatitis B virus disease” (Hoffmann-La Roche Inc., priority 2018, dated 2023).
